Laboratory results as given in PubChem BioAssay (NCI).
Several values for one entry are separate records, joined by “and”; a condition that tells them apart may be missing. Identical values can stand only once.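 How tested: cells in 96-well plates exposed to compound for 48 hours at five concentrations. Here, GI50 denotes the concentration required for 50% inhibition of growth. At the TGI there is no net growth.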 Activity calls are given as the source filed them. Cut-off read from the data, not from the text of the source: active = GI50 below about 0.43 µM; inactive = the rest.

Columns and labels:
Test in all cases: NCI-60 cell line screen, 48 h
M19-MEL melanoma = test system: M19-MEL melanoma
DMS 273 small cell lung = test system: DMS 273 small cell lung
LXFL 529 NSCLC = test system: LXFL 529 NSCLC
DMS 114 small cell lung = test system: DMS 114 small cell lung
XF 498 CNS = test system: XF 498 CNS
MDA-MB-231 breast = test system: MDA-MB-231 breast
NCI/ADR-RES ovarian = test system: NCI/ADR-RES ovarian
MDA-MB-435 = test system: MDA-MB-435
MCF7 breast = test system: MCF7 breast

Structure (SMILES) | TGI (M19-MEL melanoma) | TGI (DMS 273 small cell lung) | TGI (LXFL 529 NSCLC) | TGI (DMS 114 small cell lung) | TGI (XF 498 CNS) | other results
COc1ccc(C2ON(c3cccc(C)n3)CC=C2C)cc1 (configuration not stated) | > 100 µM | > 100 µM | > 100 µM | > 100 µM | > 100 µM | –
CC(C)CC(NC(=O)OC(C)(C)C)C(=O)Nc1ccc(Nc2nc(F)nc(-c3c4ccccc4cn3C)n2)cc1 (configuration not stated) | > 100 µM | > 100 µM | > 100 µM | > 72.4 µM | > 100 µM | TGI (MDA-MB-231 breast): > 100 µM; TGI (NCI/ADR-RES ovarian): > 100 µM; TGI (MDA-MB-435): > 100 µM; TGI (MCF7 breast): 31.4 µM
CN(C)CC/[N+]([O-])=C(/c1ccccc1)C12CC3CC(CC(C3)C1)C2 | 27.2 µM | – | 39.1 µM | 36 µM | 25.9 µM | –
COC(C)(C)C/C=C/C(C)=C/C=C/C(C)=C\C=C\C(C)=C\C=C\C=C(C)\C=C\C=C(C)\C=C\C=C(C)\C=C\CC(C)(C)OC | > 150 µg/mL | > 150 µg/mL | – | > 150 µg/mL | – | GI50 (M19-MEL melanoma): > 150 µg/mL; GI50 (DMS 273 small cell lung): > 150 µg/mL; outcome (LXFL 529 NSCLC): inactive; GI50 (DMS 114 small cell lung): > 150 µg/mL; outcome (XF 498 CNS): inactive
Cc1cccc(NC(=O)c2cccc([N+](=O)[O-])c2O)c1C | 79.1 µM | 97.7 µM | > 100 µM | > 100 µM | 61 µM | TGI (MDA-MB-231 breast): > 100 µM; TGI (NCI/ADR-RES ovarian): > 100 µM; TGI (MDA-MB-435): > 100 µM; TGI (MCF7 breast): 81.2 µM
Cc1cc(C)cc(NC(N)=S)c1 | > 100 µM | > 100 µM | > 100 µM | > 100 µM | > 100 µM | –
Cc1cc(Cl)ccc1NC(=O)CC1SC(=Nc2ccccc2Cl)NC1=O (configuration not stated) | > 100 µM | > 100 µM | > 100 µM | 67.5 µM | > 100 µM | –
N#CC1CC2(CCN1C(=O)c1ccccc1)OCCO2 (configuration not stated) | > 100 µM | > 100 µM | > 100 µM | > 100 µM | > 100 µM | –
NCCCNCCCCNC(=O)C(O)NC(=O)CCCCCCN=C(N)N (configuration not stated) | 750 µM | > 750 µM | – | 581 µM | 119 µM | GI50 (MDA-MB-231 breast): > 2570 µM; TGI (MDA-MB-231 breast): > 5000 µM; GI50 (NCI/ADR-RES ovarian): 2.19 mM; TGI (NCI/ADR-RES ovarian): > 5000 µM; GI50 (MDA-MB-435): 1.96 mM; TGI (MDA-MB-435): > 3760 µM; GI50 (MCF7 breast): 1.75 mM; TGI (MCF7 breast): 750 µM and > 5000 µM
CN(C)c1ccc(/C=c2\sc3nc4ccccc4n3c2=O)cc1 | > 100 µM | > 100 µM | > 100 µM | > 100 µM | > 100 µM | –
CC(C)OP(=O)(NC(=S)c1ccccc1)OC(C)C | > 100 µM | > 100 µM | > 100 µM | > 100 µM | > 100 µM | –
CC(=O)OCC1OC(n2c(-c3ccc(C)cc3)cc(-c3ccccc3)c(C#N)c2=O)C(OC(C)=O)C(OC(C)=O)C1OC(C)=O (configuration not stated) | > 100 µM | – | > 100 µM | > 100 µM | > 100 µM | –
CCOC(=O)c1[nH]c(COC(C)=O)c2c1CCCCCCCCCC2 | > 100 µM | > 100 µM | > 100 µM | > 100 µM | > 100 µM | –
COc1cccc(NC(=O)/C(Cc2nc3ccccc3nc2C)=N/NC(=O)C[n+]2ccccc2)c1 | > 100 µM | > 100 µM | > 100 µM | > 100 µM | > 100 µM | –
S=P(N1CC1)(N1CC1)N1CC1 | 63 µM and 438 µM | 37.1 µM and 290 µM | 40 µM and 314 µM | 36.1 µM and 249 µM | 35.8 µM and 230 µM | GI50 (M19-MEL melanoma): 25.7 µM; GI50 (MDA-MB-231 breast): 529 µM; TGI (MDA-MB-231 breast): 678 µM and 777 µM; GI50 (DMS 273 small cell lung): 2760 nM; GI50 (NCI/ADR-RES ovarian): 0.0538 mM; TGI (NCI/ADR-RES ovarian): 511 µM and 225 µM; GI50 (LXFL 529 NSCLC): 21.9 µM; GI50 (MDA-MB-435): 0.276 mM; TGI (MDA-MB-435): 403 µM and 509 µM; GI50 (DMS 114 small cell lung): 5.78 µM; GI50 (XF 498 CNS): 13.2 µM; TGI (MCF7 breast): 311 µM and 550 µM
COc1ccccc1NC(=O)CC(=O)N/N=C/c1ccc(N(CCC#N)S(=O)(=O)c2ccccc2)cc1 | > 100 µM | – | > 100 µM | > 100 µM | > 100 µM | –
Cn1cc2ccccc2c1-c1nc(F)nc(OCC(=O)[C@H]2CCC3[C@@H]4CCC5=CC(=O)CC[C@]5(C)C4[C@@H](O)C[C@@]32C)n1 (some centres not stated) | 14.9 µM | 36.1 µM | 9.59 µM | 22.5 µM | 21.9 µM | –
CC(C)(c1ccccc1)c1ccc(OC#N)cc1 | > 100 µM | 30.7 µM | > 100 µM | > 53.9 µM | > 100 µM | –
NC(N)=NS(=O)(=O)c1ccc(Nc2c3ccccc3nc3c(C(=O)Nc4ccc(S(N)(=O)=O)cc4)cccc23)cc1 | > 100 µM | > 100 µM | 78.5 µM | > 100 µM | 69.8 µM | –
COC(=O)Nc1nc2ccc(Br)cc2[nH]1 | > 100 µM | > 100 µM | > 100 µM | > 100 µM | 86.5 µM | –
C=CCC1C(=O)CC2(C)CC(=O)C(CC=C)C12C (configuration not stated) | > 100 µM | > 100 µM | > 100 µM | > 100 µM | > 100 µM | –
O=C(NC12CC3CC(CC(C3)C1)C2)C(=O)c1c[nH]c2ccccc12 | 36.2 µM | 29.6 µM | 26.5 µM | 36 µM | 25.7 µM | –
CCN(CC)c1ccc(N=Nc2ccc(-c3nc4ccc[n+](C)c4o3)cc2)cc1 | 16.3 µM | 23.3 µM | 16.7 µM | 15.8 µM | 23.5 µM | –
CCN(CC)C(=O)C(C)n1cc(C)c(=O)[nH]c1=O (configuration not stated) | > 100 µM | > 100 µM | > 100 µM | > 100 µM | > 100 µM | –
N#CC1CCCCCCCCCCC(=O)N(CCCl)C1=O (configuration not stated) | > 100 µM | > 100 µM | > 100 µM | > 100 µM | > 100 µM | –
